Assay results as given in patent US9382209B2, “Polymorphic forms of ivabradine hydrochloride” (CADILA HEALTHCARE LIMITED, priority 2011, dated 2016).

Legend:
[1] = Storage stability of crystalline forms at 40° C./75% RH (6 months stability results); format: physicochemical; conditions: for Impurity Profile (i) Tetrahydro benzazepine / Impurity Profile (ii) (S)-methyl amino Compd. / Impurity Profile (iii) Benzocylco butane Compd. / Impurity Profile (iv) Dimer Impurity: BDL = Below Detection Limit
Excerpt: In another general aspect, the storage stable crystalline Form-II of ivabradine hydrochloride may be characterized by at least 6 months stability results as outline in Table-III which is representative for one of the batch.
In another general aspect, the storage stable crystalline Form III of ivabradine hydrochloride may be characterized by at least 6 months stability results as outline in Table-IV which is representative for one of the batch.

[2] = Storage stability of crystalline forms at 25° C./60% RH; format: physicochemical; conditions: storage for 6 months at 25° C. and a relative humidity of 60%
[3] = 1 Month, 40° C. ± 2° C./75% ± 5% RH
[4] = 1 Month, 40° C. ± 2° C./75% ± 5% RH, listed as Form-II, hydrochloride
[5] = 2 Months, 40° C. ± 2° C./75% ± 5% RH
[6] = 2 Months, 40° C. ± 2° C./75% ± 5% RH, listed as Form-II, hydrochloride
[7] = 3 Months, 40° C. ± 2° C./75% ± 5% RH
[8] = 3 Months, 40° C. ± 2° C./75% ± 5% RH, listed as Form-II, hydrochloride
[9] = 6 Months, 40° C. ± 2° C./75% ± 5% RH
[10] = Initial, specification Not more than 0.15
[11] = 1 Month, 40° C. ± 2° C./75% ± 5% RH, listed as Form-III, hydrochloride
[12] = 2 Months, 40° C. ± 2° C./75% ± 5% RH, listed as Form-III, hydrochloride
[13] = 3 Months, 40° C. ± 2° C./75% ± 5% RH, listed as Form-III, hydrochloride

## COc1cc2c(cc1OC)CC(=O)N(CCCN(C)C[C@H]1Cc3cc(OC)c(OC)cc31)CC2.Cl [Form II, 3-{3-{{[(7S)-3,4-dimethoxybicyclo[4.2.0]octa-1,3,5-trien-7-yl]methyl}(methyl)amino}-propyl}-7,8-dimethoxy-1,3,4,5-tetrahydro-2H-3-benzazepin-2-one hydrochloride]
[1]; [3]
  Description: White
  Water by KF (% w/w): 2.0 % w/w
  Impurity Profile (i) Tetrahydro benzazepine: BDL
  Impurity Profile (ii) (S)-methyl amino Compd.: BDL
  Impurity Profile (iii) Benzocylco butane Compd.: BDL
  Impurity Profile (iv) Dimer Impurity: BDL
[1]; [4]
  Impurity Profile (v) Single Ind.: 0.02
  Impurity Profile (vi) Total Imp.: 0.05
  Polymorph: Form-II
[1]; [5]
  Description: White
  Water by KF (% w/w): 2.0 % w/w
  Impurity Profile (i) Tetrahydro benzazepine: BDL
  Impurity Profile (ii) (S)-methyl amino Compd.: BDL
  Impurity Profile (iii) Benzocylco butane Compd.: BDL
  Impurity Profile (iv) Dimer Impurity: BDL
[1]; [6]
  Impurity Profile (v) Single Ind.: 0.02
  Impurity Profile (vi) Total Imp.: 0.03
  Polymorph: Form-II
[1]; [7]
  Description: White
  Impurity Profile (vi) Total Imp.: 0.08
  Water by KF (% w/w): 2.1 % w/w
  Impurity Profile (i) Tetrahydro benzazepine: BDL
  Impurity Profile (ii) (S)-methyl amino Compd.: BDL
  Impurity Profile (iii) Benzocylco butane Compd.: BDL
  Impurity Profile (iv) Dimer Impurity: BDL
[1]; [8]
  Impurity Profile (v) Single Ind.: 0.03
  Polymorph: Form-II
[1]; [9]
  Description: White
  Impurity Profile (v) Single Ind.: 0.03
  Impurity Profile (vi) Total Imp.: 0.09
  Water by KF (% w/w): 2.0 % w/w
  Impurity Profile (i) Tetrahydro benzazepine: BDL
  Impurity Profile (ii) (S)-methyl amino Compd.: BDL
  Impurity Profile (iii) Benzocylco butane Compd.: BDL
  Impurity Profile (iv) Dimer Impurity: BDL
[1]; 6 Months, 40° C. ± 2° C./75% ± 5% RH, listed as Form-II, hydrochloride
  Polymorph: Form-II
[1]; [10]
  Impurity Profile (i) Tetrahydro benzazepine: BDL
  Impurity Profile (ii) (S)-methyl amino Compd.: BDL
  Impurity Profile (iii) Benzocylco butane Compd.: BDL
  Impurity Profile (iv) Dimer Impurity: BDL
  Impurity Profile (v) Single Ind.: 0.04
  Impurity Profile (vi) Total Imp.: 0.09
[1]; Initial, listed as Form-II, hydrochloride
  Polymorph: Form-II
[1]; Initial, specification Not more than 4.0%
  Water by KF (% w/w): 2.1 % w/w
[1]; Initial, specification White to slightly yellow powder
  Description: White
[1]; storage for 6 months at 40° C. and a relative humidity of 75%
  quantity of crystalline β, δ, γ, or amorphous forms after storage: no detectable quantity
[2]
  quantity of crystalline β, δ, γ, or amorphous forms after storage: no detectable quantity

## COc1cc2c(cc1OC)CC(=O)N(CCCN(C)C[C@H]1Cc3cc(OC)c(OC)cc31)CC2.Cl [Form III, 3-{3-{{[(7S)-3,4-dimethoxybicyclo[4.2.0]octa-1,3,5-trien-7-yl]methyl}(methyl)amino}-propyl}-7,8-dimethoxy-1,3,4,5-tetrahydro-2H-3-benzazepin-2-one hydrochloride]
[1]; [11]
  Impurity Profile (v) Single Ind.: 0.04
  Impurity Profile (vi) Total Imp.: 0.07
  Polymorph: Form-III
[1]; [12]
  Impurity Profile (v) Single Ind.: 0.03
  Impurity Profile (vi) Total Imp.: 0.06
  Polymorph: Form-III
[1]; [13]
  Impurity Profile (v) Single Ind.: 0.04
  Polymorph: Form-III
[1]; 6 Months, 40° C. ± 2° C./75% ± 5% RH, listed as Form-III, hydrochloride
  Polymorph: Form-III
[1]; Initial, listed as Form-III, hydrochloride
  Polymorph: Form-III
